What follows are molecules tested on AEA cellular uptake (U937 cells) (assay: [3H]-AEA cellular uptake inhibition in U937 cells). Conditions: Homo sapiens, U-937, U937 cells, final 100 nM AEA with 0.5 nM [3H]-AEA, 15 min at 37° C.; read-out: AEA uptake IC50.
Assay type: cell-based
Procedure: [^3H]-AEA Cellular Uptake
Screening for AEA cellular uptake inhibition was performed in a semi-automated procedure: Pipetting and washing steps were performed by a Biomek3000 laboratory workstation. First, required amounts of U937 cells were centrifuged at 100×g for 5 min and resuspended in RPMI (37° C.) to a final concentration of 2×10^6 cells/mL. Then, 250 μL of cell suspension (0.5×10^6 cells per sample) were transferred into AquaSil™ silanized glass vials (Chromacol 1.1-MTV) in 96-well format. After addition of 5 μL vehicle (DMSO) or compounds the cells were incubated at 37° C. for 15 min. As positive controls OMDM-2 and UCM707 were used at 10 μM in each run. The ETI-T compounds were measured at up to 7 concentrations in triplicates from 100 pM-100 μM. After pre-incubation, a mixture of 0.5 nM [ethanolamine-1-^3H]-AEA, (60 Ci/mmol) and 99.5 nM of cold AEA (final 100 nM) was added and samples were incubated at 37° C. for another 15 min. The reaction was stopped by rapid filtration over UniFilter-96 GF/C filters (PerkinElmer) pre-soaked with PBS 0.25% BSA. Cells were washed three times with 100 μL ice-cold PBS buffer containing 1% fatty acid free BSA. After drying, 45 μL MicroScint 20 scintillation cocktail (PerkinElmer, Waltham, Mass., US) was added to the wells and the plate was sealed. Radioactivity was measured by liquid scintillation counting on a PerkinElmer Wallac Trilux MicroBeta 1450 during 2 min. Non-specific binding of [^3H]AEA (100 nM) to the glass vials was never higher than 10%. IC50 values were calculated by GraphPad® by non-linear regression using the built-in log(inhibitor) vs. response-variable slope (four parameters) function.

Row | Structure (SMILES) | IC50
1 | O=C1/C(=C/c2ccc(CO)cc2)S/C(=N\Cc2ccccc2Cl)N1c1ccccc1 [22_T_N, (2Z,5Z)-2-(2-chlorobenzylimino)-5-(4-(hydroxymethyl)benzylidene)-3-phenylthiazolidin-4-one] | > 10000 nM
2 | CCCCCCCCCCCCN1C(=O)/C(=C/c2ccc(CO)cc2)S/C1=N\c1ccc(F)cc1 [22_B_V, (2Z,5Z)-5-(4-(hydroxymethyl)benzylidene)-2-(4-fluorophenylimino)-3-dodecylthiazolidin-4-one] | 12500 nM
3 | O=C1/C(=C/c2ccc3[nH]ccc3c2)S/C(=N\CCc2ccccc2)N1c1ccccc1 [03_U_N, (2Z,5Z)-5-((1H-indol-5-yl)methylene)-2-(phenethylimino)-3-phenylthiazolidin-4-one] | 509 nM
4 | COc1ccc(N2C(=O)/C(=C/c3ccc(CO)cc3)S/C2=N\Cc2ccccc2)cc1 [22_C_F, (2Z,5Z)-5-(4-(hydroxymethyl)benzylidene)-2-(benzylimino)-3-(4-methoxyphenyl)thiazolidin-4-one] | 592 nM
5 | O=C1/C(=C/c2ccc3[nH]cnc3c2)S/C(=N\Cc2ccccc2)N1c1ccc(F)cc1 [04_C_B, (2Z,5Z)-5-((1H-benzo[d]imidazol-5-yl)methylene)-2-(benzylimino)-3-(4-fluorophenyl)thiazolidin-4-one] | 861 nM
6 | O=C1/C(=C/c2ccc3c(c2)OCCO3)S/C(=N\Cc2cccnc2)N1c1ccccc1 [24_S_N, (2Z,5Z)-2-((pyridin-3-yl)methylimino)-5-((2,3-dihydrobenzo[b][1,4]dioxin-7-yl)methylene)-3-phenylthiazolidin-4-one] | 1430 nM
7 | Cc1ccc(/N=C2\S/C(=C\c3ccc(CO)cc3)C(=O)N2c2ccccc2)nc1 [22_D_N, (2Z,5Z)-5-(4-(hydroxymethyl)benzylidene)-2-(5-methylpyridin-2-ylimino)-3-phenylthiazolidin-4-one] | 1450 nM
8 | Cc1ccc(/N=C2\S/C(=C\c3ccc4c(c3)OCCO4)C(=O)N2CC(C)C)cc1 [24_A_X, (2Z,5Z)-2-(p-tolylimino)-5-((2,3-dihydrobenzo[b][1,4]dioxin-6-yl)methylene)-3-isobutylthiazolidin-4-one] | 721 nM
9 | COc1ccc(C/N=C2\S/C(=C\c3ccc(CO)cc3)C(=O)N2c2ccccc2)cc1 [22_Q_N, (2Z,5Z)-5-(4-(hydroxymethyl)benzylidene)-2-(4-methoxybenzylimino)-3-phenylthiazolidin-4-one] | 713 nM
10 | Cc1ccc(/N=C2\S/C(=C\c3ccc4c(c3)OCCO4)C(=O)N2c2ccc(Cl)cc2)cc1 [24_A_L, (2Z,5Z)-2-(p-tolylimino)-3-(4-chlorophenyl)-5-((2,3-dihydrobenzo[b][1,4]dioxin-6-yl)methylene)thiazolidin-4-one] | 616 nM
11 | CC(C)(C)c1ccc(C/N=C2\S/C(=C\c3ccc(CO)cc3)C(=O)N2c2ccccc2)cc1 [22_R_N, (2Z,5Z)-5-(4-(hydroxymethyl)benzylidene)-2-(4-tert-butylbenzylimino)-3-phenylthiazolidin-4-one] | 5180 nM
12 | Cc1ccc(/N=C2\S/C(=C\c3ccc4c(c3)OCCO4)C(=O)N2c2ccc(F)cc2)cc1 [24_A_B, (2Z,5Z)-5-(2,3-dihydro-1,4-benzodioxin-6-ylmethylene)-3-(4-fluorophenyl)-2-(p-tolylimino)thiazolidin-4-one] | 138 nM
13 | COCc1cccc(/C=C2\S/C(=N\Cc3ccc(C(C)(C)C)cc3)N(c3ccccc3)C2=O)c1 [15_R_N, (2Z,5Z)-5-(3-(methoxymethyl)benzylidene)-2-(4-tert-butylbenzylimino)-3-phenylthiazolidin-4-one] | > 10000 nM

Further lines, results first:

Row | IC50 | Structure (SMILES)
14 | 564 nM | O=C1/C(=C/c2ccc3[nH]ccc3c2)S/C(=N\c2ccccc2)N1CCCc1ccccc1 [03_N_K, (2Z,5Z)-5-((1H-indol-5-yl)methylene)-2-(phenylimino)-3-(3-phenylpropyl)thiazolidin-4-one]
15 | 1190 nM | O=C1/C(=C/c2ccccc2)S/C(=N\Cc2ccccc2)N1CCc1ccccc1 [23_C_O, (2Z,5Z)-5-benzylidene-2-(benzylimino)-3-phenethylthiazolidin-4-one]
16 | > 10000 nM | C/N=C1\S/C(=C\c2ccc(CO)cc2)C(=O)N1c1ccccc1 [22_E_N, (2Z,5Z)-5-(4-(hydroxymethyl)benzylidene)-2-(methylimino)-3-phenylthiazolidin-4-one]
17 | 879 nM | O=C1/C(=C/c2ccc3[nH]ccc3c2)S/C(=N\c2ccccc2)N1Cc1ccco1 [03_N_M, (2Z,5Z)-5-((1H-indol-5-yl)methylene)-3-((furan-2-yl)methyl)-2-(phenylimino)thiazolidin-4-one]
18 | 564 nM | O=C1/C(=C/c2ccc3[nH]ccc3c2)S/C(=N\Cc2ccccc2)N1CCCc1ccccc1 [03_C_K, (2Z,5Z)-5-((1H-indol-5-yl)methylene)-2-(benzylimino)-3-(3-phenylpropyl)thiazolidin-4-one]
19 | 812 nM | O=C1/C(=C/c2ccc(CO)cc2)S/C(=N\CCc2ccccc2)N1c1ccccc1 [22_U_N, (2Z,5Z)-5-(4-(hydroxymethyl)benzylidene)-2-(phenethylimino)-3-phenylthiazolidin-4-one]
20 | 15600 nM | COCc1cccc(/C=C2\S/C(=N\CCc3ccccc3)N(c3ccccc3)C2=O)c1 [15_U_N, (2Z,5Z)-5-(3-(methoxymethyl)benzylidene)-2-(phenethylimino)-3-phenylthiazolidin-4-one]
21 | 729 nM | O=C1/C(=C/c2ccc(CO)cc2)S/C(=N\c2ccccc2)N1c1ccccc1 [compound 22, (2Z,5Z)-5-(4-(hydroxymethyl)benzylidene)-3-phenyl-2-(phenylimino)thiazolidin-4-one]
22 | 610 nM | O=C1/C(=C/c2ccc3[nH]cnc3c2)S/C(=N\c2ccccc2)N1Cc1ccccc1 [03_N_C, (2Z,5Z)-5-((1H-benzo[d]imidazol-5-yl)methylene)-3-benzyl-2-(phenylimino)thiazolidin-4-one]

Same assay, conditions: Homo sapiens, U-937, U937 cells, final 100 nM AEA with 0.5 nM [3H]-AEA, 15 min at 37° C.; read-out: AEA uptake inhibition IC50

Row | Structure (SMILES) | IC50
23 | COc1ccc(/N=C2\S/C(=C\c3ccc4[nH]cnc4c3)C(=O)N2c2ccccc2)cc1 [drawing 147] | 164 nM
24 | C/N=C1\S/C(=C\c2ccc3[nH]ccc3c2)C(=O)N1c1ccccc1 | 16600 nM
25 | COc1ccc(/C=C2\S/C(=N\c3ccccc3)N(c3ccc(OC)cc3)C2=O)cc1 | 7180 nM
26 | Cc1ccc(/N=C2\S/C(=C\c3ccc(CO)cc3)C(=O)N2c2ccccc2)nc1 [drawing 143] | 1450 nM

Further lines, results first:

Row | IC50 | Structure (SMILES)
27 | 3260 nM | O=C1/C(=C/c2ccc3occc3c2)S/C(=N\c2ccccc2)N1c1ccccc1
28 | 7100 nM | O=C1/C(=C/c2ccc3nccnc3c2)S/C(=N\c2ccccc2)N1c1ccccc1
29 | 6700 nM | COc1cncc(/C=C2\S/C(=N\c3ccccc3)N(c3ccccc3)C2=O)c1
30 | 1310 nM | O=C1/C(=C/c2ccc(CO)cc2)S/C(=N\c2ccccc2)N1Cc1ccco1 [drawing 157]
31 | 5560 nM | O=C1/C(=C/c2ccc3[nH]c(=O)oc3c2)S/C(=N\c2ccccc2)N1c1ccccc1
32 | 5420 nM | O=C1/C(=C/c2ccccc2)S/C(=N\c2ccccc2)N1Cc1ccccc1
33 | 440 nM | COc1ccc(/C=C2\S/C(=N\Cc3ccccc3)N(c3ccccc3)C2=O)cc1
34 | 4150 nM | CCCCN1C(=O)/C(=C/c2ccccc2)S/C1=N\c1ccccc1
35 | 180 nM | O=C1/C(=C/c2ccccc2)S/C(=N\Cc2ccccc2)N1c1ccccc1 [drawing 130]
36 | 731 nM | O=C1/C(=C/c2ccc3[nH]ccc3c2)S/C(=N\c2ccccc2)N1c1ccccc1 [drawing 108]
37 | 194 nM | O=C1/C(=C/c2ccc3[nH]cnc3c2)S/C(=N\c2ccccc2)N1c1ccccc1 [drawing 109]
38 | 1600 nM | COc1ccnc(/C=C2\S/C(=N\c3ccccc3)N(c3ccccc3)C2=O)c1
39 | 5500 nM | COc1cc(/C=C2\S/C(=N\c3ccccc3)N(c3ccccc3)C2=O)ccn1
40 | 3360 nM | O=C1/C(=C/c2ccc3c(c2)OCO3)S/C(=N\c2ccccc2)N1c1ccccc1

Same assay, conditions: U937 cells, final 100 nM AEA with 0.5 nM [3H]-AEA, 15 min at 37° C.; read-out: AEA uptake IC50

Row | Structure (SMILES) | IC50
41 | Cc1ccc(N2C(=O)/C(=C/c3ccc4[nH]cnc4c3)S/C2=N\c2ccc(F)cc2)cc1 [04_B_A, (2Z,5Z)-5-((1H-benzo[d]imidazol-5-yl)methylene)-2-(4-fluorophenylimino)-3-p-tolylthiazolidin-4-one] | 527 nM
42 | CCCCCCCCCCCCN1C(=O)/C(=C/c2ccc(CO)cc2)S/C1=N\c1ccc(F)cc1 [23_A_V, (2Z,5Z)-5-(4-(hydroxymethyl)benzylidene)-2-(4-fluorophenylimino)-3-dodecylthiazolidin-4-one] | 10500 nM

The next lines start with the values.

Row | IC50 | Structure (SMILES)
43 | 1430 nM | O=C1/C(=C/c2ccc(CO)cc2)S/C(=N\Cc2ccccc2)N1CCCc1ccccc1 [22_C_K, (2Z,5Z)-5-(4-(hydroxymethyl)benzylidene)-2-(benzylimino)-3-(3-phenylpropyl)thiazolidin-4-]
44 | 1200 nM | O=C1/C(=C/c2ccc(CO)cc2)S/C(=N\Cc2ccccc2)N1CCc1ccccc1 [22_C_O, (2Z,5Z)-5-(4-(hydroxymethyl)benzylidene)-2-(benzylimino)-3-phenethylthiazolidin-4-]

Reference: patent US10155754B2, “Substituted 2-imino-1,3-thiazolidin-4-ones as N-arachidonoylethanolamine cellular uptake inhibitors” (UNIVERSITAT BERN, priority 2014, dated 2018)
